Paper PMC6572135, “N-Methyl-D-glucamine–Calix[4]resorcinarene Conjugates: Self-Assembly and Biological Properties” (Molecules, 2019)

Legend:
Type in all cases: physicochemical
[1] = UV spectroscopy (absorption at 500 nm), critical aggregation concentration; settings: water solution; GCR-2 in the presence of two-fold excess of MG
Description: Consequently, there is a chance that GCR-1 aggregates form not only by hydrogen bonds between hydroxylic groups but also by electrostatic interaction between negatively charged sulfonate groups on the lower rim and partially-positively charged meglumine groups on the upper rim. The change of optical density at 500 nm with increasing GCR-1 concentration has a nonlinear character (Figure 3b). The linear dependence breaks after 10 mM that correlates well with the CAC obtained by conductometry and tensiometry, and this violation of Lambert-Beer law is due to formation of GCR-1 aggregates in solution.
Dependence of GCR-2 at 500 nm on its concentration also loses linearity at higher 7.2 mM (Figure 3b). This is because the dissolved molecules of GCR-2 aggregate that confirms by conductometry and tensiometry. The obtained values of the correlation coefficients r^2 calculated for both calixarenes in a wide concentration range depict that GCR-2 has a greater ability to aggregate than GCR-1. […] Probably, the short methyl groups fail to form a nonpolar core capable of incorporating hydrophobic guests. Thus, the cooperative effect of hydrogen bonds and π-stacking between GCR-2 molecules contribute to formation of compact aggregates incapable to solubilization of hydrophobic molecules. […]

[2] = Zeta potential by electrophoretic light scattering; settings: water solution, 25 °C; GCR-2 in the presence of two-fold excess MG; concentration not given
Description: Formation of aggregates with increasing GCR-1 concentration was confirmed by the DLS method. In aqueous 1 mM GCR-1 solutions the formation of small particles with hydrodynamic diameter of 2.9 nm was observed (Figure 4a). This size is much more similar to that of a single molecule that to that of an aggregate. However, the bimodal distribution with peaks at 120 nm and 504 nm occurs for solution with 50 mM GCR-1. This could be attributed to the formation different stacked structures by head-to-head or head-to-tail interaction between GCR-1 molecules. […] Zeta-potential of GCR-1 aggregates obtained by electrophoretic light scattering in solution was −56.8 mV that correspond to sufficiently stable systems. Negative value was caused by dissociation of sulfonate groups of GCR-1 lower rim in aqueous medium. To confirm the morphology and dimension of the GCR-1 aggregates, TEM image was recorded (Figure 5a), where it was shown that GCR-1 molecules were assembled into non-well-defined large nanoparticles. The probable reason for such high polydispersity is multiple supramolecular interactions, such as Coulombic interactions between oppositely charged rims through head-to-tail self-assembly, hydrogen bonding between hydroxyl groups by head-to-head joining and π-π stacking between aromatic units of neighboring macrocycles (Figure 6a). […]

[3] = Transmission electron microscopy of aggregates; settings: aqueous solution mixture of GCR-2 with two-fold excess of MG
Description: In a mixed 1 mM GCR-2–2 mM MG system particles with a hydrodynamic diameter of 2 nm were formed, which correlates well with the size of single macrocycle molecules. In a 15 mM GCR-2–30 mM MG mixed system particles with 3.8 nm diameter were formed. Such a size approximately corresponds to double the length of a GCR-2 molecule. This indicates of formation of spherical micelles by virtue of lateral packaging of aromatic walls by head-to-head contact due to π–stacking and hydrogen bonds between neighboring GCR-2 molecules as depicted in Figure 6b. Such an aggregation mode is similar to the self-assembly behavior described for other calixarenes. The zeta-potential of obtained particles is −17.4 mV which is attributable primarily to hydroxylic groups. The formation of little spherical particles was further affirmed by TEM images (Figure 5b). In comparison with the nanostructure of GCR-1 aggregates, smaller nanostructures with a diameter of ca. 5 ± 2 nm were formed in the aqueous solution mixture of GCR-2, which was in good accordance with the DLS measurements.
TEM images were recorded on a HT7700 TEM instrument (Hitachi, Tokyo, Japan) operated at 110 kV accelerating voltage. The samples with 20 mM solutions were ultrasonicated in water for 10 min and then dispersed on 300 mesh carbon-coated copper grid.

[4] = Hydrophobic dye (Sudan I) solubilization; settings: water solution; GCR-2 with two-fold excess of MG; absorption band at 500 nm region
Description: The method of solubilization of the hydrophobic dye Sudan I was used for determination of formed aggregates’ morphology. The appearance of an absorption band characteristic of a lipophilic substance in an aqueous solution of a specific component indicates the formation of a hydrophobic core of the component aggregates, like in surfactant micelles, which solubilizes the hydrophobic substrate.
Dependence of GCR-2 at 500 nm on its concentration also loses linearity at higher 7.2 mM (Figure 3b). This is because the dissolved molecules of GCR-2 aggregate that confirms by conductometry and tensiometry. The obtained values of the correlation coefficients r^2 calculated for both calixarenes in a wide concentration range depict that GCR-2 has a greater ability to aggregate than GCR-1. […] Probably, the short methyl groups fail to form a nonpolar core capable of incorporating hydrophobic guests. […]
Hydrophobic dye solubilization was carried out by adding an excess of Sudan I to solutions. […] They were filtered, and Sudan I absorbance was measured at 486 nm using a Specord 250 Plus spectrophotometer (Analytic Jena, Jena, Germany) using a 1 mm optical path length quartz cell. Dye absorbance was obtained by subtraction of the contribution of macrocycle to the summary spectrum. Each absorbance spectrum was obtained three times, and the absorbance intensities were within 2–3%.

CC1c2cc(c(O)c(CN(C)C[C@@H](O)[C@H](O)[C@@H](O)[C@@H](O)CO)c2O)C(C)c2cc(c(O)c(CN(C)C[C@@H](O)[C@H](O)[C@@H](O)[C@@H](O)CO)c2O)C(C)c2cc(c(O)c(CN(C)C[C@@H](O)[C@H](O)[C@@H](O)[C@@H](O)CO)c2O)C(C)c2cc1c(O)c(CN(C)C[C@@H](O)[C@H](O)[C@@H](O)[C@@H](O)CO)c2O (stereo partly drawn) [GCR-2, N-methyl-D-glucaminemethyl methylcalix[4]resorcinarene]
CAC, UV spectroscopy (loss of linearity of absorption at 500 nm) [1]: 7.2 mM
Zeta-potential of aggregates [2]: −17.4 mV
Diameter of nanostructures by TEM [3]: ca. 5 ± 2 nm
Solubilization of hydrophobic dye Sudan I [4]: do not solubilize the hydrophobic Sudan I
